Data taken from the supplement of paper PMC11061612.

Assays:
[1] = tested on: HSC-39 (Gastric Carcinoma); experiment: Bliss excess, mean over the matrix (fraction); higher = more synergy
Procedure, shortened: (§1)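 After 24 hours at 37°C and 5% CO2 in 1536-well plates, cells in DMEM/F12 or RPMI plus 10% FBS received two-drug dose matrices for 72 hours. Viability came from CellTiter-Glo 2.0 luminescence and was scaled as inhibition, anchored at 0 by vehicle wells and at 1 by blank wells. Combination Emax is taken as the second-highest inhibition in the matrix, and Bliss excess as the observed combination effect less EA + EB − EA·EB, with EA and EB the single-agent effects.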

[2] = tested on: MKN45 (Gastric Carcinoma); experiment: as above
Procedure, shortened: as §1

[3] = tested on: NCI-H2342 (Lung Adenocarcinoma); experiment: as above
Procedure, shortened: as §1

[4] = tested on: PANC-03-27 (Pancreatic Carcinoma); experiment: as above
Procedure, shortened: as §1

[5] = tested on: CAL-62 (Thyroid Gland Carcinoma); experiment: combination Emax (second highest fraction inhibited in the dose matrix, 72 h); higher = more inhibition; extreme values may be limits of the assay
Procedure, shortened: as §1

[6] = tested on: COLO-680N (Esophageal Squamous Cell Carcinoma); experiment: as above
Procedure, shortened: as §1

[7] = tested on: HSC-39 (Gastric Carcinoma); experiment: as above
Procedure, shortened: as §1

[8] = tested on: LK-2 (Squamous Cell Lung Carcinoma); experiment: as above
Procedure, shortened: as §1

[9] = tested on: MFE-280 (Endometrial Carcinoma); experiment: as above
Procedure, shortened: as §1

[10] = tested on: MKN45 (Gastric Carcinoma); experiment: as above
Procedure, shortened: as §1

[11] = tested on: NCI-H2342 (Lung Adenocarcinoma); experiment: as above
Procedure, shortened: as §1

[12] = tested on: PC-3_[JPC-3] (Lung Adenocarcinoma); experiment: as above
Procedure, shortened: as §1

[13] = tested on: PSN1 (Pancreatic Carcinoma); experiment: as above
Procedure, shortened: as §1

[14] = tested on: RCM-1 (Colorectal Carcinoma); experiment: as above
Procedure, shortened: as §1

[15] = tested on: REH (B-Lymphoblastic Leukemia); experiment: as above
Procedure, shortened: as §1

[16] = tested on: RKN (Other Solid Carcinomas); experiment: as above
Procedure, shortened: as §1

[17] = tested on: SHP-77 (Small Cell Lung Carcinoma); experiment: as above
Procedure, shortened: as §1

[18] = tested on: SK-MEL-2 (Melanoma); experiment: as above
Procedure, shortened: as §1

[19] = tested on: TE-8 (Esophageal Squamous Cell Carcinoma); experiment: as above
Procedure, shortened: as §1

[20] = tested on: VAL (B-Cell Non-Hodgkin's Lymphoma); experiment: as above
Procedure, shortened: as §1
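For Bliss excess, mean over the matrix in this document: after 72 h of two-drug dosing.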

| SMILES | Bliss excess [1] | Bliss excess [2] | Bliss excess [3] | Bliss excess [4] | combination Emax [5] | combination Emax [6] | combination Emax [7] | combination Emax [8] | combination Emax [9] | combination Emax [10] | combination Emax [11] | combination Emax [12] | combination Emax [13] | combination Emax [14] | combination Emax [15] | combination Emax [16] | combination Emax [17] | combination Emax [18] | combination Emax [19] | combination Emax [20] |
| --- | --- | --- | --- | --- | --- | --- | --- | --- | --- | --- | --- | --- | --- | --- | --- | --- | --- | --- | --- | --- |
| O=C(c1cc(Cc2n[nH]c(=O)c3ccccc23)ccc1F)N1CCN(C(=O)C2CC2)CC1 [Olaparib] + Cc1c2c(nn1C)CSCc1cc(n(C)n1)CSc1cc(c3ccccc3c1)OCCCc1c(C(=O)O)n(C)c3c-2c(Cl)ccc13 [AZD5991] (first compound max 10 µM, 7x7, partner max 1 µM) | 0.0101 | -0.0368 | -0.0462 | -0.0462 | 0.0932 | 0.0855 | 1 | 0.301 | 0.181 | 0.185 | 0.239 | 0.0845 | 0.214 | 0.0639 | 0.943 | 0.161 | 0.288 | 0.902 | 0.184 | 0.771 |
| N#Cc1cnc(Nc2cc(NC[C@H]3CNCCO3)c(C(F)(F)F)cn2)cn1 [SRA737] + C=CCn1c(=O)c2cnc(Nc3ccc(N4CCN(C)CC4)cc3)nc2n1-c1cccc(C(C)(C)O)n1 [AZD1775] (first compound max 10 µM, partner max 1 µM) | 0.0943 | -0.0475 | 0.0225 | -0.0233 | 0.727 | 0.35 | 1 | 0.953 | 0.566 | 0.742 | 0.621 | 0.26 | 0.642 | 0.631 | 0.957 | 0.608 | 0.722 | 0.772 | 0.777 | 0.797 |
| N#Cc1cnc(Nc2cc(NC[C@H]3CNCCO3)c(C(F)(F)F)cn2)cn1 [SRA737] + CCc1c2c(nc3ccc(O)cc13)-c1cc3c(c(=O)n1C2)COC(=O)[C@]3(O)CC [SN-38] (first compound max 10 µM, 7x7, partner max 0.3 µM) | 0.0294 | 0.0226 | 0.0737 | -0.0648 | 0.865 | 0.552 | 1 | 0.906 | 0.88 | 0.868 | 0.74 | 0.72 | 0.908 | 0.768 | 0.991 | 0.858 | 0.912 | 0.693 | 0.838 | 0.947 |
| N#Cc1cnc(Nc2cc(NC[C@H]3CNCCO3)c(C(F)(F)F)cn2)cn1 [SRA737] + Nc1ccn([C@@H]2O[C@H](CO)[C@@H](O)C2(F)F)c(=O)n1 [Gemcitabine] (first compound max 10 µM, 7x7, partner max 0.3 µM) | 0.0564 | -0.0613 | 0.14 | -0.0023 | 0.799 | 0.47 | 1 | 0.918 | 0.815 | 0.761 | 0.841 | 0.6 | 0.853 | 0.688 | 0.989 | 0.812 | 0.907 | 0.504 | 0.749 | 0.809 |
| N#Cc1cnc(Nc2cc(NC[C@H]3CNCCO3)c(C(F)(F)F)cn2)cn1 [SRA737] + O=c1[nH]cc(F)c(=O)[nH]1 [5-Fluorouracil] (first compound max 10 µM, 7x7, partner max 20 µM) | -0.0252 | -0.0689 | -0.0171 | 0.0112 | 0.371 | 0.387 | 1 | 0.686 | 0.252 | 0.697 | 0.1 | 0.102 | 0.748 | 0.578 | 0.798 | 0.344 | 0.786 | 0.113 | 0.413 | 0.775 |
| Cc1nc(-c2cn3c(n2)-c2ccc(-c4cnn(C(C)(C)C(N)=O)c4)cc2OCC3)n(C(C)C)n1 [Taselisib] + O=C(Nc1ccc2[nH]nc(-c3ccncc3)c2c1)[C@@H]1CCN(CC(=O)N2CCN(c3ccc(-c4ncccn4)cc3)CC2)C1 [SCH772984] (first compound max 10 µM, 7x7, partner max 5 µM) | 0.029 | 0.0587 | 0.103 | 0.0848 | 0.637 | 0.5 | 0.985 | 0.613 | 0.839 | 0.798 | 0.431 | 0.665 | 0.946 | 0.803 | 0.477 | 0.57 | 0.387 | 0.968 | 0.758 | 0.6 |
| CC1(C)CCC(CN2CCN(c3ccc(C(=O)NS(=O)(=O)c4ccc(NCC5CCOCC5)c([N+](=O)[O-])c4)c(Oc4cnc5[nH]ccc5c4)c3)CC2)=C(c2ccc(Cl)cc2)C1 [Venetoclax] + CS(=O)(=O)CCNCc1ccc(-c2ccc3ncnc(Nc4ccc(OCc5cccc(F)c5)c(Cl)c4)c3c2)o1 [Lapatinib] (first compound max 1 µM, 7x7, partner max 10 µM) | -0.0257 | -0.054 | -0.0374 | -0.0535 | 0.114 | 0.231 | 0.915 | 0.31 | 0.255 | 0.242 | 0.183 | 0.568 | 0.177 | 0.42 | 0.916 | 0.171 | 0.344 | 0.174 | 0.263 | 1 |
